# In patent publication US8431563B2 (priority 2010, dated 2013):
# pEC50, pIC50: −log10 of the molar value.
# Legend:
# [1] = molecular target: T1, GKRP (Glucokinase Regulatory Protein) with human His-hepatic GK (Homo sapiens, UniProt Q14397); test: GKRP NADPH Coupled Assay; assay type: biochemical; settings: GK-GKRP EC50 (NADPH-coupled), indirect measure of glucose-6-phosphate, fluorescence; 1 μM GKRP (10×), 20 nM GK (5×)
# T1 sequence (Q14397 1-625): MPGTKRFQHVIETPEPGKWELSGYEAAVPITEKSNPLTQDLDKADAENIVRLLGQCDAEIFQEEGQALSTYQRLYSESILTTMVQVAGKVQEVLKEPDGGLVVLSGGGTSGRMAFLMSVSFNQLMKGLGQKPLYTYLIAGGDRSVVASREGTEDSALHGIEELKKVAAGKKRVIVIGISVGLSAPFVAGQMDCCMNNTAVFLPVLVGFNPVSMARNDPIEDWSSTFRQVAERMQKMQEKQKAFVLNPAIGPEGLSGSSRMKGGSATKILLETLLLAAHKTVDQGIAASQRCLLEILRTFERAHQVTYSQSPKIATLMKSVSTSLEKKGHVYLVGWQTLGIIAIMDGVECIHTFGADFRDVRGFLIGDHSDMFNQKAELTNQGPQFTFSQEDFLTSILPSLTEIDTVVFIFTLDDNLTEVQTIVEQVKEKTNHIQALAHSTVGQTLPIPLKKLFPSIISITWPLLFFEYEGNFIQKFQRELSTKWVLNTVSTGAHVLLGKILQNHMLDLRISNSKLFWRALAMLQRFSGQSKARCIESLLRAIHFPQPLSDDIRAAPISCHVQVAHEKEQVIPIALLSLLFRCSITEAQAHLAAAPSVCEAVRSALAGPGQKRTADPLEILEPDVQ
# Procedure: This assay is used to directly measure the formation of ^13C-glucose-6-phosphate from ^13C-glucose by liquid chromatography-mass spectrometry (LC MS/MS). Begin by preparing the following solutions: Compound Buffer (CB): 50 mM Tris, pH 7.5/4 mM MgCl2/6% DMSO/fresh 10 mM DTT from 1M frozen stock. Enzyme Buffer (EB): 50 mM Tris, pH 7.5/4 mM MgCl2/6% DMSO/fresh 0.1% BSA/fresh 0.01% Brij-35 (10% BSA and 1% Brij-35 stock). GK (Glucokinase) Working Stock (5×): Dilute human His-hepatic GK to 30 nM in EB buffer. […] After 30 minutes add 10 μl of GK Working Stock (5×). Re-seal the plate and incubate for another 30 minutes at room temperature while mixing. After the second 30 minutes, stop the reaction by the addition of 50 μl of 100% acetonitrile, seal, and mix for 5-10 minutes. Run 10 μl of this sample through the LC MS/MS (API 3200, Applied Biosystems Inc., Carlsbad, Calif.).
# This assay is used as an indirect measure of glucose-6-phosphate (G6P) formed from glucose due to the enzymatic activity of glucokinase. Assay format is the same as for GKRP LC MS/MS Biochemical Assay with the following exceptions. GK Working Stock (5×): Dilute human His-hepatic GK to 20 nM in EB buffer. Stop & Detection Reagent (2×): Dilute β-nicotinamide adenine dinucleotide phosphate sodium salt (β-NADP) (Aldrich-Sigma, St. Louis, Mo.) to 2 mM from 100 mM stock (stock in 10 mM Tris, pH 9.2) and dilute glucose-6-phosphate dehydrogenase (Aldrich-Sigma, St. Louis, Mo.) to 0.04 Unit/μl from 10 Unit/μl (stock in 10 mM Tris pH 7.5/0.05% Brij-35) in 0.2 M Tris, pH 9.2/8% DMSO. After the initial 30 minute incubation add 10 μl of 20 nM GK diluted in EB (5×). Re-seal the plate and incubate for another 1 hour at room temperature while mixing. After 1 hour remove the seal and add 50 μl of Stop & Detection Reagent and incubate for 5 minutes at room temperature while mixing.
# [2] = molecular target: T1, GKRP (Glucokinase Regulatory Protein) with human His-hepatic GK; test: biochemical; settings: 13C-glucose-6-phosphate formation; 280 nM GKRP (10×), 30 nM GK (5×); read-out: GK-GKRP EC50 (LC MS/MS-2)
# Procedure, shortened: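 Product formation, 13C-glucose-6-phosphate from 13C-glucose, was measured directly by LC MS/MS after acetonitrile quench. The GK reaction ran 30 min at room temperature in Tris pH 7.5 buffer with 4 mM MgCl2 and 6% DMSO. The 5× enzyme stock was 30 nM His-tagged human hepatic glucokinase.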
# [3] = molecular target: T2, interaction between glucokinase (GK) and glucokinase regulatory protein (GKRP) (Homo sapiens, UniProt Q14397); test: biochemical; assay type: binding; settings: avi-tagged GKRP, GK-fluorescein, AlphaScreen beads; read-out: GK-GKRP IC50 (Binding)
# T2 sequence (Q14397 1-625): T1 sequence (Q14397 1-625)
# Procedure, shortened: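 Measures direct GK–GKRP binding in 20 mM Tris pH 7.5 containing 1 μM sorbitol-6-phosphate, 0.05% BSA and 1 mM DTT. Compound and avi-tagged GKRP sit 20 min at room temperature before GK-fluorescein addition (6 nM in the added buffer); read after 2 h dark incubation at room temperature.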
compound,measurement,setting,value
"CC(O)(c1ccc(N2CCN(S(=O)(=O)c3cccs3)CC2CC2CCOCC2)cc1)C(F)(F)F (single isomer, unassigned) [Example 37 Peak #4, 1,1,1-trifluoro-2-(4-(2-(tetrahydro-2H-pyran-4-ylmethyl)-4-(2-thiophenylsulfonyl)-1-piperazinyl)phenyl)-2-propanol]",pEC50,[1],< 4.30
"C[C@H]1CN(S(=O)(=O)c2ccoc2)CCN1c1ccc(C(C)(O)C(F)(F)F)cc1 (stereo partly drawn) [Example 30, 1,1,1-trifluoro-2-(4-((2S)-4-(3-furanylsulfonyl)-2-methyl-1-piperazinyl)phenyl)-2-propanol]",pEC50,[1],5.51
"CC(O)(c1ccc(N2CCN(S(=O)(=O)c3cccs3)CC2CN2CC[C@@H](O)C2)cc1)C(F)(F)F (mixture of isomers) [Example 56, (3R)-1-((4-(2-thiophenylsulfonyl)-1-(4-(2,2,2-trifluoro-1-hydroxy-1-methylethyl)phenyl)-2-piperazinyl)methyl)-3-pyrrolidinol]",pEC50,[1],5.46
"O=S(=O)(c1cccs1)N1CCN(c2ccc(C(O)(C(F)(F)F)C(F)(F)F)cc2)C[C@H]1C1CC1 [Example 14, 2-(4-((3R)-3-cyclopropyl-4-(2-thiophenylsulfonyl)-1-piperazinyl)phenyl)-1,1,1,3,3,3-hexafluoro-2-propanol]",pEC50,[1],5.30
"CC(O)(c1ccc(N2CCN(S(=O)(=O)c3cccs3)C[C@@H]2Cn2ccc3cccnc32)cc1)C(F)(F)F (mixture of isomers) [Example 172, 2-(4-((S)-2-((1H-pyrrolo[2,3-b]pyridin-1-yl)methyl)-4-(thiophen-2-ylsulfonyl)piperazin-1-yl)phenyl)-1,1,1-trifluoro-2-propanol]",pEC50,[1],6.60
same,pEC50,[2],6.60
"CC(O)(c1ccc(N2CCN(S(=O)(=O)c3cccs3)C[C@@H]2Cn2ccc3nccnc32)cc1)C(F)(F)F (mixture of isomers) [Example 171, 2-(4-((S)-2-((5H-pyrrolo[2,3-b]pyrazin-5-yl)methyl)-4-(thiophen-2-ylsulfonyl)piperazin-1-yl)phenyl)-1,1,1-trifluoro-2-propanol]",pEC50,[1],6.19
same,pEC50,[2],6.10
"CC(O)(c1ccc(N2CCN(S(=O)(=O)c3cccs3)CC2CC2CCOCC2)cc1)C(F)(F)F (single isomer, unassigned) [Example 37 Peak #3, 1,1,1-trifluoro-2-(4-(2-(tetrahydro-2H-pyran-4-ylmethyl)-4-(2-thiophenylsulfonyl)-1-piperazinyl)phenyl)-2-propanol]",pEC50,[1],4.89
"O=S(=O)(c1cccs1)N1CCN(c2ccc(C(O)(C(F)(F)F)C(F)(F)F)cc2)C(Cc2cccc(O)c2)C1 (racemic) [Example 176, 3-((1-(4-(1,1,1,3,3,3-hexafluoro-2-hydroxypropan-2-yl)phenyl)-4-(thiophen-2-ylsulfonyl)piperazin-2-yl)methyl)phenol]",pEC50,[1],5.74
"C[C@H]1CN(S(=O)(=O)c2nccs2)CCN1c1ccc(C(C)(O)C(F)(F)F)cc1 (single isomer, unassigned) [Example 34 Peak #1]",pEC50,[1],5.60
"CC(O)(c1ccc(N2CCN(S(=O)(=O)c3cccs3)C[C@@H]2CN2CCC(=O)CC2)cc1)C(F)(F)F (mixture of isomers) [Example 144, 1-(((2S)-4-(2-thiophenylsulfonyl)-1-(4-(2,2,2-trifluoro-1-hydroxy-1-methylethyl)phenyl)-2-piperazinyl)methyl)-4-piperidinone]",pIC50,[3],6.25
same,pEC50,[2],6.08
"CC(F)(c1ccc(N2CCN(S(=O)(=O)c3cccs3)C[C@@H]2CN2C3CCCC2CC(F)C3)cc1)C(F)(F)F (mixture of isomers) [Example 142, 3-fluoro-9-(((2S)-1-(4-(1,2,2,2-tetrafluoro-1-methylethyl)phenyl)-4-(2-thiophenylsulfonyl)-2-piperazinyl)methyl)-9-azabicyclo[3.3.1]nonane (exo)]",pIC50,[3],7.33
same,pEC50,[2],6.72
"C[C@H]1COCCN1CC1CN(S(=O)(=O)c2cccs2)CCN1c1ccc(C(C)(O)C(F)(F)F)cc1 (single isomer, unassigned) [Example 45 Peak #3]",pEC50,[1],4.82
"C[C@H]1CN(S(=O)(=O)c2ccc(N)nc2)CCN1c1ccc(C(O)(C(F)(F)F)C(F)(F)F)cc1 [Example 92, 2-(4-((2S)-4-((6-amino-3-pyridinyl)sulfonyl)-2-methyl-1-piperazinyl)phenyl)-1,1,1,3,3,3-hexafluoro-2-propanol]",pIC50,[3],6.69
same,pEC50,[2],6.63
"CC(C)CS(=O)(=O)N(C[C@H]1CN(S(=O)(=O)c2cccs2)CCN1c1ccc(C(C)(O)C(F)(F)F)cc1)c1cccnc1 (mixture of isomers) [Example 223, 2-methyl-N-3-pyridinyl-N-(((2R)-4-(2-thiophenylsulfonyl)-1-(4-(2,2,2-trifluoro-1-hydroxy-1-methylethyl)phenyl)-2-piperazinyl)methyl)-1-propanesulfonamide]",pIC50,[3],7.46
same,pEC50,[2],7.07
"CC1CS(=O)(=O)CCN1C[C@H]1CN(S(=O)(=O)c2cccs2)CCN1c1ccc(C(C)(O)C(F)(F)F)cc1 (mixture of isomers) [Example 86, 1,1,1-trifluoro-2-(4-((2S)-2-((3-methyl-1,1-dioxido-4-thiomorpholinyl)methyl)-4-(2-thiophenylsulfonyl)-1-piperazinyl)phenyl)-2-propanol]",pIC50,[3],7.21
same,pEC50,[2],6.94
"CC(C)CN(C[C@H]1CN(S(=O)(=O)c2cccs2)CCN1c1ccc(C(C)(O)C(F)(F)F)cc1)S(=O)(=O)N(C)C (mixture of isomers) [Example 215, N,N-dimethyl-N′-(2-methylpropyl)-N′-(((2R)-4-(2-thiophenylsulfonyl)-1-(4-(2,2,2-trifluoro-1-hydroxy-1-methylethyl)phenyl)-2-piperazinyl)methyl)sulfamide]",pIC50,[3],7.15
same,pEC50,[2],7.15
"CC(O)(c1ccc(N2CCN(S(=O)(=O)c3cccs3)C[C@@H]2CN2[C@@H]3COC[C@H]2CC(=O)C3)cc1)C(F)(F)F (stereo partly drawn) [Example 106, 9-(((2S)-4-(2-thiophenylsulfonyl)-1-(4-(2,2,2-trifluoro-1-hydroxy-1-methylethyl)phenyl)-2-piperazinyl)methyl)-3-oxa-9-azabicyclo[3.3.1]nonan-7-one]",pIC50,[3],7.46
same,pEC50,[2],7.01
"CC(O)(c1ccc(N2CCN(S(=O)(=O)c3cccs3)C[C@@H]2C[S+]([O-])c2ccc(F)cc2)cc1)C(F)(F)F (single isomer, unassigned) [Example 191 Peak#2]",pIC50,[3],6.37
same,pEC50,[2],6.60
"2-(4-((2S)-4-((5-amino-2-thiophenyl)sulfonyl)-2-(((3S)-3-methyl-4-morpholinyl)methyl)-1-piperazinyl)phenyl)-1,1,1,3,3,3-hexafluoro-2-propanol [Example 225]",pIC50,[3],8.15
same,pEC50,[2],7.72
